Laboratory results taken from ChEMBL document CHEMBL4014349, “Application of Structure-Based Design and Parallel Chemistry to Identify a Potent, Selective, and Brain Penetrant Phosphodiesterase 2A Inhibitor” (J Med Chem, 2017).

Legend:
Format in all cases: ADME, organism-based
Plasma [1] = experiment: Unbound concentration in mouse plasma at […], sc after 30 mins; settings: in vivo, 0.5 h
Plasma [2] = experiment: Unbound concentration in rat plasma at 3 mg/kg, sc after 30 mins; settings: in vivo, 0.5 h
[3] = Drug uptake in rat brain at 3 mg/kg, sc after 30 mins; settings: read-out: Drug uptake
[4] = Drug uptake in rat cerebrospinal fluid at 3 mg/kg, sc after 30 mins; settings: read-out: Drug uptake
[5] = Drug uptake in mouse brain at […], sc after 30 mins; settings: read-out: Drug uptake
[6] = Ratio of unbound concentration in mouse brain to plasma at […], sc after 30 mins; settings: brain and plasma, read-out: K(p,uu,brain)
[7] = Ratio of unbound concentration in rat brain to plasma at 3 mg/kg, sc after 30 mins; settings: brain and plasma, read-out: K(p,uu,brain)
Brain [8] = experiment: Unbound concentration in mouse brain at […], sc after 30 mins; settings: in vivo, 0.5 h
Brain [9] = experiment: Unbound concentration in rat brain at 3 mg/kg, sc after 30 mins; settings: in vivo, 0.5 h
[10] = Drug uptake in rat plasma at 3 mg/kg, sc after 30 mins
[11] = Drug uptake in mouse plasma at […], sc after 30 mins

Cp(f) (Plasma [1]): 160 nM
Cp(f) (Plasma [2]): 248 nM
concentration at 0.5 h [3]: 950 nM
concentration at 0.5 h [4]: 79.9 nM
concentration at 0.5 h [5]: 452 nM
Kp uu at 0.5 h [6]: 0.27
Kp uu at 0.5 h [7]: 0.37
Drug uptake(free) (Brain [8]): 43 nM
Drug uptake(free) (Brain [9]): 90.2 nM
concentration at 0.5 h [10]: 776 nM
concentration at 0.5 h [11]: 798 nM
Structure (SMILES): Cn1ncc(-c2nn(C)c3ncnc(N4CCC4)c23)c1-c1ccc(C(F)(F)F)cc1
